# Assays:
# [1] = Kinetic thiol consumption assay with model thiol glutathione; assay type: physicochemical; parameters: Rate constant with glutathione (k(GSH)): unit not given here; conditions: for Rate constant with glutathione (k(GSH)): 500 μM ligand, 5 μM thiol, phosphate buffer pH 8; for Rate constant with Glutathione: Protein: Glutathione, cysteine position NA, in h-1
# Procedure, shortened: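 GSH 5 μM, degassed phosphate buffer pH 8, TCEP beads 2% v/v; acrylamide added; RT, 1 h; fluorescence ex/em 380/470 nm; normalized to DMSO/thiol control; k from first-order exponential decay fit.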
# [2] = target: T1, human cyclin-dependent kinase 2 (Cdk2) (Homo sapiens, UniProt P24941); test: Kinetic thiol consumption assay with wild type Cdk2 (C177); assay type: binding; parameters: key to Rate enhancement, Cdk2 WT: k(Cdk2) divided by k(model thiol); Rate constant with Cdk2 (k(Cdk2)): unit not given here; conditions: for Rate constant with Cdk2 (k(Cdk2)): 500 μM ligand, 5 μM thiol, phosphate buffer pH 8; for Rate enhancement, Cdk2 WT: no additional mutations; for Rate constant with Cdk2 WT: Protein: Cdk2, cysteine position WT, in h^-1; for k(Cdk2)/k(Cdk2_mut) rate enhancement: model thiol Cdk2[C177A, F80C, K278C]; for k(Cdk2)/k(GSH) rate enhancement: model thiol glutathione
# T1 construct: poly-histidine; made in house; host or cells: E. coli
# Procedure, shortened: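 Thiol 5 μM (Cdk2 or model thiol), degassed phosphate buffer pH 8, TCEP beads 2% v/v. Plates incubated 1 h RT, ex/em 380/470 nm. First-order decay fit → rate constant; ratio Cdk2/model thiol = rate enhancement.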
# [3] = target: T2, Cdk2[C177A, F80C, K278C] (Homo sapiens, UniProt P24941, C177A/F80C/K278C); test: Kinetic thiol consumption assay with mutant Cdk2 as model thiol; assay type: binding; parameters: unit not given here; conditions: 500 μM ligand, 5 μM thiol, phosphate buffer pH 8
# T2 construct: poly-histidine; made in house; host or cells: E. coli
# Procedure, shortened: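 First-order rate constants were derived by exponential-decay fitting of DMSO/thiol-normalized fluorescence (380/470 nm) over time at room temperature. Thiol was 5 μM E. coli-expressed His-tagged Cdk2 mutant C177A/F80C/K278C in degassed pH 8 phosphate buffer containing 2% v/v TCEP beads.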
# [4] = target: T3, Cdk2(C177A, F80C) (Homo sapiens, UniProt P24941, C177A/F80C); test: Kinetic thiol consumption assay with Cdk2 mutant F80C, incl. kobs versus concentration (Kd, k2); assay type: binding; parameters: key to Rate enhancement, Cdk2 F80C: Cdk2 rate constant divided by model-thiol rate constant; conditions: additional mutation C177A; for Rate constant with Cdk2 F80C: Protein: Cdk2, cysteine position F80C, in h^-1
# T3 construct: poly-histidine; made in house; host or cells: E. coli
# Procedure, shortened: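 His-tagged Cdk2(C177A/F80C) from E. coli or model thiol, 5 μM in degassed phosphate buffer pH 8 with TCEP beads, reacted with acrylamide ligands; fluorescence (ex/em 380/470 nm) normalized to DMSO control and fitted to first-order decay for kobs. Kd and k2 obtained from hyperbolic fit of kobs versus ligand concentration.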
# [5] = target: T4, Cdk2(H71C) (C177A) (Homo sapiens, UniProt P24941, C177A/H71C); test: Kinetic thiol consumption assay with Cdk2 mutant H71C; assay type: binding; parameters: key to Rate enhancement, Cdk2 H71C: rate constant with Cdk2 ÷ rate constant with model thiol (fold); conditions: additional mutation C177A; for Rate constant with Cdk2 H71C: Protein: Cdk2, cysteine position H71C, in h^-1
# T4 construct: poly-histidine; made in house; host or cells: E. coli
# Procedure, shortened: (§1)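 Read-out is fluorescence at 380/470 nm, taken after 1 h at room temperature and normalized to a DMSO/thiol-only control over time. Thiol (5 μM Cdk2 mutant or model thiol) was in degassed pH 8 phosphate buffer with 2% v/v TCEP beads. Acrylamide rate constants for Cdk2 were divided by those with model thiol.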
# [6] = target: T5, Cdk2(S276C) (C177A) (Homo sapiens, UniProt P24941, C177A/S276C); test: Kinetic thiol consumption assay with Cdk2 mutant S276C; assay type: binding; parameters: key to Rate enhancement, Cdk2 S276C: rate constant with Cdk2 ÷ rate constant with model thiol (fold); conditions: additional mutation C177A; for Rate constant with Cdk2 S276C: Protein: Cdk2, cysteine position S276C, in h^-1
# T5 construct: poly-histidine; made in house; host or cells: E. coli
# Procedure, shortened: as §1
# [7] = target: T6, Cdk2(N272C) (C177A) (Homo sapiens, UniProt P24941, C177A/N272C); test: Kinetic thiol consumption assay with Cdk2 mutant N272C; assay type: binding; parameters: key to Rate enhancement, Cdk2 N272: rate constant with Cdk2 ÷ rate constant with model thiol (fold); conditions: for Rate enhancement, Cdk2 N272: Cdk2 N272, additional mutation C177A; for Rate constant with Cdk2 N272C: Protein: Cdk2, cysteine position N272C, additional mutation C177A, in h^-1
# T6 construct: poly-histidine; made in house; host or cells: E. coli
# Procedure, shortened: as §1
# [8] = target: T7, Cdk2(T182C) (C177A) (Homo sapiens, UniProt P24941, C177A/T182C); test: Kinetic thiol consumption assay with Cdk2 mutant T182C; assay type: binding; parameters: key to Rate enhancement, Cdk2 T182C: rate constant with Cdk2 ÷ rate constant with model thiol (fold); conditions: additional mutation C177A; for Rate constant with Cdk2 T182C: Protein: Cdk2, cysteine position T182C, in h^-1
# T7 construct: poly-histidine; made in house; host or cells: E. coli
# Procedure, shortened: as §1
# [9] = target: T8, Cdk2(R122C) (C177A) (Homo sapiens, UniProt P24941, C177A/R122C); test: Kinetic thiol consumption assay with Cdk2 mutant R122C; assay type: binding; parameters: key to Rate enhancement, Cdk2 R122C: rate constant with Cdk2 ÷ rate constant with model thiol (fold); conditions: additional mutation C177A; for Rate constant with Cdk2 R122C: Protein: Cdk2, cysteine position R122C, in h-1
# T8 construct: poly-histidine; made in house; host or cells: E. coli
# Procedure, shortened: as §1
# [10] = target: T9, Cdk2(S181C) (C177A) (Homo sapiens, UniProt P24941, C177A/S181C); test: Kinetic thiol consumption assay with Cdk2 mutant S181C; assay type: binding; parameters: key to Rate enhancement, Cdk2 S181C: rate constant with Cdk2 ÷ rate constant with model thiol (fold); conditions: additional mutation C177A; for Rate constant with Cdk2 S181C: Protein: Cdk2, cysteine position S181C, in h^-1
# T9 construct: poly-histidine; made in house; host or cells: E. coli
# Procedure, shortened: as §1
Compound,Rate constant with glutathione (k(GSH)) [1],Rate constant with Glutathione [1],Rate constant with Cdk2 (k(Cdk2)) [2],"Rate enhancement, Cdk2 WT [2]",Rate constant with Cdk2 WT [2],k(Cdk2)/k(Cdk2_mut) rate enhancement [2],k(Cdk2)/k(GSH) rate enhancement [2],"Rate constant with Cdk2[C177A, F80C, K278C] (k(Cdk2_mut)) [3]","Rate enhancement, Cdk2 F80C [4]",Rate constant with Cdk2 F80C [4],"Rate enhancement, Cdk2 H71C [5]","Rate enhancement, Cdk2 S276C [6]",Rate constant with Cdk2 S276C [6],"Rate enhancement, Cdk2 N272 [7]",Rate constant with Cdk2 N272C [7],"Rate enhancement, Cdk2 T182C [8]",Rate constant with Cdk2 T182C [8],"Rate enhancement, Cdk2 R122C [9]","Rate enhancement, Cdk2 S181C [10]",Rate constant with Cdk2 S181C [10],also measured
C=CC(=O)N1CCC(NC(=O)C2CCC2)C1 (stereo not shown) [CA-088],0.01352,0.01947,0.00595,0.3054,0.005947,3.366,0.4399,0.00177,0.1205,0.002347,0,0.4395,0.008557,0.5609,0.01092,0.9096,0.01771,0.4684,0.1904,0.003708,Rate constant with Cdk2 R122C [9]: 0.009119
C=CC(=O)Nc1ccccc1-c1ccccc1 [EL-1012],0.00837,0.008054,0.00519,0.6362,0.005124,0.1479,0.6204,0.03512,1.711,0.01378,0.3662,0.2841,0.002288,0,,2.136,0.0172,0.6595,0.7584,0.006108,Rate constant with Cdk2 H71C [5]: 0.002949; Rate constant with Cdk2 R122C [9]: 0.005312
C=CC(=O)N1CCCCCC1c1cccnc1 (stereo not shown) [EL-1059],0.00656,0.00648,0.00213,0.3281,0.002126,0.4738,0.3244,0.00449,0.1379,0.0008934,0.3667,0.7301,0.004731,0.325,0.002106,1.009,0.00654,0.3573,0.9519,0.006168,Rate constant with Cdk2 H71C [5]: 0.002376; Rate constant with Cdk2 R122C [9]: 0.002315
C=CC(=O)NCCN1CCOCC1 [BN-346],0.00299,0.004652,0.00428,1.185,0.005514,2.921,1.429,0.00146,0.189,0.0008792,0.09555,0.2004,0.0009323,0.4286,0.001994,0.1853,0.000862,0,0.233,0.001084,Rate constant with Cdk2 H71C [5]: 0.0004445
